From US11306101B2 (Celgene Corporation, priority 2019, dated 2022) come the findings set out here.

This test addresses T1, CK1α (Homo sapiens, UniProt P48729+Q96SW2).
T1 construct: expressed in transfected cells
In words: CK1α ePL degradation assay in MDS-L cells. It counts as cell-based. Conditions: MDS-L cells expressing ePL-tagged CK1α; for DC50: concentration giving 50% CK1α degradation vs DMSO control; for Y: lowest measured CK1α level normalized to DMSO control. The protocol: The following is an example of an assay that can be used to determine the CK1α degradation activity of Isoindolinone Carboxamide Compounds in a cell line, for example, the MDS-L cell line.
Compounds were dispensed by an acoustic dispenser (ATS acoustic transfer system from EDC Biosystems) into a 384-well in a 10 point dose-response curve using 3-fold dilutions starting at 10 μM and going down to 0.0005 μM in DMSO. […] Assay plates were incubated at 37° C. with 5% CO2 for the indicated times. At the different time points, 25 μL of the InCELL Hunter™ Detection Reagent Working Solution (catalog number 96-0002, DiscoverX, Fremont, Calif.) was added to each well and incubated at RT for 30 min protected from light. After 30 min, luminescence was read on a PHERAstar luminometer (BMG LABTECH, Cary, N.C.).
CK1α levels in compound-treated wells were normalized to that of DMSO control and expressed as percent of control (PoC) (y).
The lowest measured CK1α level normalized to DMSO control in response to compound treatment, termed Y value, was used to characterize the compound-mediated CK1α degradation efficiency.

The structures appear in SMILES notation. Some results are limits rather than exact numbers.

T1 sequence (P48729 whole entry): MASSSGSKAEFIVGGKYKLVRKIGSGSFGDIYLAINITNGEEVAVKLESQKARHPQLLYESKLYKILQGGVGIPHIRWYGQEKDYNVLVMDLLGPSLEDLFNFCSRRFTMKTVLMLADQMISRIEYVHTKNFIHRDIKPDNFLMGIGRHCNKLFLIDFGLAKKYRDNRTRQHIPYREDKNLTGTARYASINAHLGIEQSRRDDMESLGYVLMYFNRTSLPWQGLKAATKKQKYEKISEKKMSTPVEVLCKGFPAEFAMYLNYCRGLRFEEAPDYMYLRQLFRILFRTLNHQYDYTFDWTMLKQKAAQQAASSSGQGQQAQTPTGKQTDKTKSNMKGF
T1 sequence (Q96SW2 whole entry): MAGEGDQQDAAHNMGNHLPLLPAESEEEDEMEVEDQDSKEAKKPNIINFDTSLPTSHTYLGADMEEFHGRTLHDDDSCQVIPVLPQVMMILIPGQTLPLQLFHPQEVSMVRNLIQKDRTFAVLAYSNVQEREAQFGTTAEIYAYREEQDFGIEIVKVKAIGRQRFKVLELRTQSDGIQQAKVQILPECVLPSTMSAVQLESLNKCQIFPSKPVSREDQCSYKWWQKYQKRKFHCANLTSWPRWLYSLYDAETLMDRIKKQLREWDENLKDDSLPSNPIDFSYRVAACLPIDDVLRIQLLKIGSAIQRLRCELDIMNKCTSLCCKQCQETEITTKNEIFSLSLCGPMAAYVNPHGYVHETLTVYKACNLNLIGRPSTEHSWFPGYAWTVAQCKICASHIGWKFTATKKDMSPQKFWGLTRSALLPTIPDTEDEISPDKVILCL
T1 sequence (Q16531 whole entry partner): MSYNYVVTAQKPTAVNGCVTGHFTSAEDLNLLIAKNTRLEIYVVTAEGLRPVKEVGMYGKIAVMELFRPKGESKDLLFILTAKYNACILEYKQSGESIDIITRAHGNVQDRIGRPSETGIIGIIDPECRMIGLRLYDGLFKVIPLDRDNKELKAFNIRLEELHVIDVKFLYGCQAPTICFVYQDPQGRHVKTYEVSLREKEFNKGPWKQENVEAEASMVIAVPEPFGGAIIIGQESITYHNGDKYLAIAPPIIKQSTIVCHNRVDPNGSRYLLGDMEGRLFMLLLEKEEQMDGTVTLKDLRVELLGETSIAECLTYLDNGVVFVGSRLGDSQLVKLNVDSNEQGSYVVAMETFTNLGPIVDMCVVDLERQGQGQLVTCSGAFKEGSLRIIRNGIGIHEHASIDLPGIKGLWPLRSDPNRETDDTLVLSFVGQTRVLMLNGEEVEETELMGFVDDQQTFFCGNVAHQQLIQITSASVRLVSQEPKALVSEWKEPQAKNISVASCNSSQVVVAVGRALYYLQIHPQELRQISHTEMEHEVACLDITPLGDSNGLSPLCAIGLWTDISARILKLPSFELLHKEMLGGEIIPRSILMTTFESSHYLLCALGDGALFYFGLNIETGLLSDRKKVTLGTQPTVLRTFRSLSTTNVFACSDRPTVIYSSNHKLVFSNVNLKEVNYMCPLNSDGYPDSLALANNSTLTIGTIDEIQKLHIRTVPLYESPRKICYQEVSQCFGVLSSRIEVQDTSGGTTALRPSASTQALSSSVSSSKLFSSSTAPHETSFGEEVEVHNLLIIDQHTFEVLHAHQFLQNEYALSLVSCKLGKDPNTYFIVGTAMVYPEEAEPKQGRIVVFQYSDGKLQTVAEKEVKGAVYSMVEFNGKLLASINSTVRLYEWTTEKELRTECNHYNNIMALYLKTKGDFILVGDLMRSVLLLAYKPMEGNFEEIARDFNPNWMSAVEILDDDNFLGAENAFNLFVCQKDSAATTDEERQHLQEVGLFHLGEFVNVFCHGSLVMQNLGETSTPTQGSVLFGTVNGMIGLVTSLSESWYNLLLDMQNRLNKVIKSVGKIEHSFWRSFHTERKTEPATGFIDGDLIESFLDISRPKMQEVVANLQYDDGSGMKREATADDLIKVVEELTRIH

For `Cn1cc([C@@H](NC(=O)c2ccc3c(c2)CN(C2CCC(=O)NC2=O)C3=O)C(F)(F)F)cn1` (stereo partly drawn) [Example 70, 2-(2,6-dioxopiperidin-3-yl)-1-oxo-N-((R)-2,2,2-trifluoro-1-(1-methyl-1H-pyrazol-4-yl)ethyl)isoindoline-5-carboxamide], the 50% degradation concentration (DC50) (in general, the concentration giving 50% degradation) lay within 100 to 500 nM and the Y result is on record as “** (a Y value (shown as**) of 20%<Y≤35%)”.
With `O=C1CCC(N2Cc3cc(C(=O)N[C@H](C4CCC(C(F)(F)F)CC4)C(F)(F)F)ccc3C2=O)C(=O)N1` (stereo partly drawn) [Example 71, 2-(2,6-dioxopiperidin-3-yl)-1-oxo-N-((1R)-2,2,2-trifluoro-1-(4-(trifluoromethyl)cyclohexyl)ethyl)isoindoline-5-carboxamide], the half-maximal degradation concentration (DC50) is under 100 nM and the Y result is “* (a Y value (shown as *) of 0<Y≤20%)”.
In the case of `O=C1CCC(N2Cc3cc(C(=O)N[C@H](c4ccc(F)cc4Cl)C(F)(F)F)ccc3C2=O)C(=O)N1` (stereo partly drawn) [Example 72, N-((R)-1-(2-chloro-4-fluorophenyl)-2,2,2-trifluoroethyl)-2-(2,6-dioxopiperidin-3-yl)-1-oxoisoindoline-5-carboxamide], the DC50 was under 100 nM and the Y result is given as “* (a Y value (shown as *) of 0<Y≤20%)”.
On the same counts, the results for `O=C1CCC(N2Cc3cc(C(=O)N[C@H](c4ccc(F)c(F)c4)C(F)(F)F)ccc3C2=O)C(=O)N1` (stereo partly drawn) [Example 73, N-((R)-1-(3,4-difluorophenyl)-2,2,2-trifluoroethyl)-2-(2,6-dioxopiperidin-3-yl)-1-oxoisoindoline-5-carboxamide] are under 100 nM and “* (a Y value (shown as *) of 0<Y≤20%)”.
Taken in the same sequence, the figures for `CC1([C@@H](NC(=O)c2ccc3c(c2)CN(C2CCC(=O)NC2=O)C3=O)C(F)(F)F)CCC1` (stereo partly drawn) [Example 74, 2-(2,6-dioxopiperidin-3-yl)-1-oxo-N-((R)-2,2,2-trifluoro-1-(1-methylcyclobutyl)ethyl)isoindoline-5-carboxamide] were under 100 nM and “* (a Y value (shown as *) of 0<Y≤20%)”.
On to `O=C1CCC(N2Cc3cc(C(=O)N[C@@H](C(F)(F)F)C4(C(F)(F)F)CC4)ccc3C2=O)C(=O)N1` (stereo partly drawn) [Example 75, 2-(2,6-dioxopiperidin-3-yl)-1-oxo-N-((R)-2,2,2-trifluoro-1-(1-(trifluoromethyl)cyclopropyl)ethyl)isoindoline-5-carboxamide], for which the DC50 lay in the range of 100 to 500 nM and the Y entry is on record as “** (a Y value (shown as**) of 20%<Y≤35%)”.
For the molecule `O=C1CCC(N2Cc3cc(C(=O)N[C@H](c4ccc(F)cn4)C(F)(F)F)ccc3C2=O)C(=O)N1` (stereo partly drawn) [Example 76, 2-(2,6-dioxopiperidin-3-yl)-1-oxo-N-((R)-2,2,2-trifluoro-1-(5-fluoropyridin-2-yl)ethyl)isoindoline-5-carboxamide], the DC50 was under 100 nM and the Y entry is “** (a Y value (shown as**) of 20%<Y≤35%)”.
For `O=C1CCC(N2Cc3cc(C(=O)N[C@H](c4ccc(F)cc4C(F)(F)F)C(F)(F)F)ccc3C2=O)C(=O)N1` (stereo partly drawn) [Example 77, 2-(2,6-dioxopiperidin-3-yl)-1-oxo-N-((R)-2,2,2-trifluoro-1-(4-fluoro-2-(trifluoromethyl)phenyl)ethyl)isoindoline-5-carboxamide], the DC50 is under 100 nM and the Y entry is “* (a Y value (shown as *) of 0<Y≤20%)”.
As to `CC1([C@@H](NC(=O)c2ccc3c(c2)CN(C2CCC(=O)NC2=O)C3=O)C(F)(F)F)CC1` (stereo partly drawn) [Example 78, 2-(2,6-dioxopiperidin-3-yl)-1-oxo-N-((R)-2,2,2-trifluoro-1-(1-methylcyclopropyl)ethyl)isoindoline-5-carboxamide], the DC50 was under 100 nM and the Y result is listed as “* (a Y value (shown as *) of 0<Y≤20%)”.
For the molecule `O=C1CCC(N2Cc3cc(C(=O)N[C@H](c4ccc(Cl)cc4F)C(F)(F)F)ccc3C2=O)C(=O)N1` (stereo partly drawn) [Example 79, N-((R)-1-(4-chloro-2-fluorophenyl)-2,2,2-trifluoroethyl)-2-(2,6-dioxopiperidin-3-yl)-1-oxoisoindoline-5-carboxamide], the DC50 was under 100 nM and the Y entry is listed as “* (a Y value (shown as *) of 0<Y≤20%)”.
Take `O=C1CCC(N2Cc3cc(C(=O)N[C@H](c4ccc(F)cc4F)C(F)(F)F)ccc3C2=O)C(=O)N1` (stereo partly drawn) [Example 80, N-((R)-1-(2,4-difluorophenyl)-2,2,2-trifluoroethyl)-2-(2,6-dioxopiperidin-3-yl)-1-oxoisoindoline-5-carboxamide]: the DC50 was under 100 nM and the Y entry is recorded as “* (a Y value (shown as *) of 0<Y≤20%)”.
For `CN1CCC([C@@H](NC(=O)c2ccc3c(c2)CN(C2CCC(=O)NC2=O)C3=O)C(F)(F)F)CC1` (stereo partly drawn) [Example 81, 2-(2,6-dioxopiperidin-3-yl)-1-oxo-N-((R)-2,2,2-trifluoro-1-(1-methylpiperidin-4-yl)ethyl)isoindoline-5-carboxamide], the DC50 was in the range of 500 to 1000 nM and the Y result is reported as “** (a Y value (shown as**) of 20%<Y≤35%)”.
Consider `O=C1CCC(N2Cc3cc(C(=O)N[C@H](c4cnccn4)C(F)(F)F)ccc3C2=O)C(=O)N1` (stereo partly drawn) [Example 82, 2-(2,6-dioxopiperidin-3-yl)-1-oxo-N-((R)-2,2,2-trifluoro-1-(pyrazin-2-yl)ethyl)isoindoline-5-carboxamide], for which the DC50 lay in the range of 100 to 500 nM and the Y entry is “** (a Y value (shown as**) of 20%<Y≤35%)”.
For the molecule `CC1([C@@H](NC(=O)c2ccc3c(c2)CN(C2CCC(=O)NC2=O)C3=O)C(F)(F)F)CCCC1` (stereo partly drawn) [Example 83, 2-(2,6-dioxopiperidin-3-yl)-1-oxo-N-((R)-2,2,2-trifluoro-1-(1-methylcyclopentyl)ethyl)isoindoline-5-carboxamide], the half-maximal degradation concentration (DC50) was under 100 nM and the Y result was “* (a Y value (shown as *) of 0<Y≤20%)”.
For `O=C1CCC(N2Cc3cc(C(=O)N[C@H](c4ccccc4)C(F)(F)F)c(F)cc3C2=O)C(=O)N1` (stereo partly drawn) [Example 84, 2-(2,6-dioxopiperidin-3-yl)-6-fluoro-1-oxo-N-((R)-2,2,2-trifluoro-1-phenylethyl)isoindoline-5-carboxamide], the DC50 was 100 to 500 nM and the Y entry is “** (a Y value (shown as**) of 20%<Y≤35%)”.
Taken in the same sequence, the figures for `C[C@H](NC(=O)c1cc2c(cc1F)C(=O)N(C1CCC(=O)NC1=O)C2)c1ccccc1` (stereo partly drawn) [Example 85, 2-(2,6-dioxopiperidin-3-yl)-6-fluoro-1-oxo-N-((S)-1-phenylethyl)isoindoline-5-carboxamide] were 500 to 1000 nM and “*** (a Y value (shown as***) of 35%<Y<50%)”.
Taken in the same sequence, the figures for `O=C1CCC(N2Cc3cc(C(=O)N[C@H](c4ccc(F)cc4OC(F)(F)F)C(F)(F)F)ccc3C2=O)C(=O)N1` (stereo partly drawn) [Example 86, 2-(2,6-dioxopiperidin-3-yl)-1-oxo-N-((R)-2,2,2-trifluoro-1-(4-fluoro-2-(trifluoromethoxy)phenyl)ethyl)isoindoline-5-carboxamide] were under 100 nM and “* (a Y value (shown as *) of 0<Y≤20%)”.
On the same counts, the results for `CC(C)(C#N)[C@@H](NC(=O)c1ccc2c(c1)CN(C1CCC(=O)NC1=O)C2=O)C(F)(F)F` (stereo partly drawn) [Example 87, N-((R)-3-cyano-1,1,1-trifluoro-3-methylbutan-2-yl)-2-(2,6-dioxopiperidin-3-yl)-1-oxoisoindoline-5-carboxamide] are 100 to 500 nM and “** (a Y value (shown as**) of 20%<Y≤35%)”.
